Measured values as given in the supplement of paper PMC10307832.

What was measured:
Experiment in all cases: relative viability (nuclei count vs DMSO), 5 days (fraction); higher = more cells survive
VX-11e + Luminespib = compound: CC1=CN=C(N=C1C2=CNC(=C2)C(=O)N[C@H](CO)C3=CC(=CC=C3)Cl)NC4=C(C=C(C=C4)F)Cl [VX-11e] + CCNC(=O)c1noc(-c2cc(C(C)C)c(O)cc2O)c1-c1ccc(CN2CCOCC2)cc1 [Luminespib] (partner 0.01 µM)
Method in brief: (§1)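 Five library-drug doses in √10 steps were combined with a fixed anchor-drug dose, or a single drug was given alone, by pin tool to lung cancer cell lines in 1536-well plates the day after seeding. Nuclei were stained and counted after 5 days. Relative viability is the nuclei count in treated wells over that in vehicle wells, taken as the median of duplicate plates.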

VX-11e + OSI-027 = compound: CC1=CN=C(N=C1C2=CNC(=C2)C(=O)N[C@H](CO)C3=CC(=CC=C3)Cl)NC4=C(C=C(C=C4)F)Cl [VX-11e] + COc1cccc2cc(-c3nc([C@H]4CC[C@H](C(=O)O)CC4)n4ncnc(N)c34)[nH]c12 [OSI-027] (partner 0.5 µM)
Method in brief: as §1

VX-11e + Lapatinib = compound: CC1=CN=C(N=C1C2=CNC(=C2)C(=O)N[C@H](CO)C3=CC(=CC=C3)Cl)NC4=C(C=C(C=C4)F)Cl [VX-11e] + CS(=O)(=O)CCNCc1ccc(-c2ccc3ncnc(Nc4ccc(OCc5cccc(F)c5)c(Cl)c4)c3c2)o1 [Lapatinib] (partner 2 µM)
Method in brief: as §1

VX-11e + Linsitinib = compound: CC1=CN=C(N=C1C2=CNC(=C2)C(=O)N[C@H](CO)C3=CC(=CC=C3)Cl)NC4=C(C=C(C=C4)F)Cl [VX-11e] + C[C@]1(O)C[C@@H](c2nc(-c3ccc4ccc(-c5ccccc5)nc4c3)c3c(N)nccn32)C1 [Linsitinib] (partner 1 µM)
Method in brief: as §1

Cell Line | relative viability (VX-11e + Luminespib; first compound 0.04 µM) | relative viability (VX-11e + Luminespib; first compound 0.1265 µM) | relative viability (VX-11e + Luminespib; first compound 1.265 µM) | relative viability (VX-11e + Luminespib; first compound 4 µM) | relative viability (VX-11e + OSI-027; first compound 0.04 µM) | relative viability (VX-11e + OSI-027; first compound 0.1265 µM) | relative viability (VX-11e + OSI-027; first compound 1.265 µM) | relative viability (VX-11e + OSI-027; first compound 4 µM) | relative viability (VX-11e + Lapatinib; first compound 0.1265 µM) | relative viability (VX-11e + Lapatinib; first compound 1.265 µM) | relative viability (VX-11e + Lapatinib; first compound 4 µM) | relative viability (VX-11e + Linsitinib; first compound 0.1265 µM) | relative viability (VX-11e + Linsitinib; first compound 1.265 µM) | relative viability (VX-11e + Linsitinib; first compound 4 µM) | relative viability (VX-11e + Luminespib; first compound 0.4 µM) | relative viability (VX-11e + OSI-027; first compound 0.4 µM) | relative viability (VX-11e + Lapatinib; first compound 0.04 µM) | relative viability (VX-11e + Lapatinib; first compound 0.4 µM) | relative viability (VX-11e + Linsitinib; first compound 0.04 µM) | relative viability (VX-11e + Linsitinib; first compound 0.4 µM)
NCI-H1793 | 0.178 | 0.177 | 0.275 | 0.15 | 0.247 | 0.194 | 0.251 | 0.134 | 0.611 | 0.397 | 0.278 | 0.687 | 0.818 | 0.514 | – | – | – | – | – | –
NCI-H1437 | 1.19 | 1.09 | 1.17 | 0.736 | 0.795 | 0.725 | 0.444 | 0.373 | 0.754 | 0.291 | 0.228 | 1.05 | 0.409 | 0.203 | 0.996 | 0.878 | 0.755 | 0.35 | 1.03 | 0.888
HOP-62 | 1.01 | 0.843 | 0.687 | 0.406 | 0.633 | 0.715 | 0.464 | 0.372 | 0.979 | 0.27 | 0.526 | 0.773 | 0.831 | 0.226 | 0.946 | 0.569 | 1.14 | 0.776 | 0.903 | 0.973
HCC-15 | 0.264 | 0.363 | 0.18 | 0.175 | 0.616 | 0.624 | 0.227 | 0.153 | 0.849 | 0.565 | 0.288 | 0.815 | 0.497 | 0.217 | 0.207 | – | 0.949 | 0.38 | 0.868 | 0.746
HCC-44 | 1.17 | 0.96 | 0.556 | 0.916 | 0.485 | 0.453 | 0.247 | 0.284 | 0.974 | 0.836 | 0.88 | 0.619 | 0.657 | 0.523 | 0.364 | 0.144 | 0.986 | 0.871 | 0.697 | 0.686
NCI-H520 | 0.205 | 0.183 | 0.272 | 0.207 | 0.247 | 0.25 | 0.217 | 0.313 | 0.791 | 0.87 | 0.572 | 0.898 | 1.06 | 0.69 | 0.19 | 0.203 | 0.951 | 0.687 | 0.948 | 0.827
NCI-H322M | 0.846 | 0.687 | 0.658 | 0.606 | 0.535 | 0.401 | 0.417 | 0.364 | – | 0.436 | 0.456 | – | 0.688 | 0.534 | 0.303 | 0.319 | 0.581 | 0.674 | 1.01 | 0.781
NCI-H2009 | 1.07 | 1.03 | 1.08 | 0.349 | 0.637 | 0.665 | 0.226 | 0.168 | 0.891 | 0.265 | 0.438 | 1.11 | 1.09 | 0.259 | 1.03 | 0.559 | 0.944 | 0.729 | 1.17 | 1.18
CAL-12T | 0.392 | 0.434 | 0.433 | 0.276 | 0.402 | 0.523 | 0.312 | 0.199 | – | 0.565 | 0.348 | 0.816 | 0.465 | 0.282 | 0.462 | 0.424 | – | 0.544 | 0.873 | 0.765
ABC-1 | – | – | 0.436 | 0.518 | 0.309 | 0.426 | 0.339 | 0.278 | 1.06 | 1.22 | 1.53 | 0.792 | 0.531 | 0.538 | 0.495 | 0.374 | 1.03 | 0.899 | 0.814 | 0.597
A-427 | 1.05 | 0.865 | 0.687 | 0.483 | 0.334 | 0.19 | 0.215 | 0.183 | 0.942 | 1.05 | 0.584 | 1.08 | 0.888 | 0.466 | 0.642 | 0.309 | 0.966 | 1.03 | 1.14 | 1.01
LOU-NH91 | 0.394 | 0.396 | 0.341 | 0.312 | 0.622 | 0.67 | 0.611 | 0.541 | 0.673 | 0.565 | 0.667 | 0.952 | 0.946 | 0.733 | 0.283 | 0.497 | 0.66 | – | 0.919 | –
NCI-H838 | 0.413 | 0.273 | 0.347 | 0.264 | 0.356 | 0.413 | 0.347 | 0.262 | 0.92 | 0.701 | 0.627 | 0.933 | 0.887 | 0.79 | 0.207 | 0.3 | 0.856 | 0.396 | 1.06 | 0.96
NCI-H650 | 0.749 | 0.8 | 0.772 | 0.677 | 0.531 | 0.616 | 0.559 | 0.518 | 0.894 | – | 0.909 | 0.79 | – | 0.88 | 0.606 | 0.75 | – | 0.944 | – | 0.957
NCI-H1666 | 1.02 | 0.92 | 0.829 | 0.642 | 0.932 | 0.777 | 0.611 | 0.524 | 0.99 | 0.43 | 0.388 | 0.81 | 0.493 | 0.42 | 0.941 | 0.75 | 0.713 | 0.467 | 0.846 | 0.594
NCI-H1915 | 0.821 | 0.737 | 0.773 | 0.59 | 0.573 | 0.439 | 0.338 | 0.213 | 0.92 | 0.976 | 0.808 | 1.12 | 1.04 | 0.857 | 0.851 | 0.254 | 0.981 | 0.984 | 1.21 | 1.19
NCI-H2087 | 0.188 | 0.188 | 0.154 | 0.152 | 0.357 | 0.448 | 0.319 | 0.145 | 0.867 | 0.979 | 0.295 | 1.1 | 0.803 | 0.302 | – | – | 1.23 | 0.42 | 0.949 | 0.902
